Test results reported in ChEMBL document CHEMBL4811278, “Discovery of novel modulators for the PPARα (peroxisome proliferator activated receptor α): Potential therapies for nonalcoholic fatty liver disease” (Bioorg Med Chem, 2021).
Active and inactive are the calls of the source. The rule behind the calls is not given here.

Tests used:
Mus musculus [1] = experiment: Upregulation of PPARalpha expression in liver of high fat diet-induced nonalcoholic steatohepatitis C57BL/6J mouse model at 3 mg/kg, po and measured after 24 hrs by quantitative real time PCR analysis; format: functional, organism-based
[2] = target: T1, Peroxisome proliferator-activated receptor alpha (Mus musculus) (UniProt P23204); experiment: In vivo agonist activity at PPARalpha in high fat diet-induced nonalcoholic steatohepatitis C57BL/6J mouse model assessed as increase in Cyp4a3 mRNA expression in liver administered at 3 mg/kg, po and measured after 24 hrs by quantitative real time PCR analysis; format: functional, organism-based
T1 sequence (whole entry): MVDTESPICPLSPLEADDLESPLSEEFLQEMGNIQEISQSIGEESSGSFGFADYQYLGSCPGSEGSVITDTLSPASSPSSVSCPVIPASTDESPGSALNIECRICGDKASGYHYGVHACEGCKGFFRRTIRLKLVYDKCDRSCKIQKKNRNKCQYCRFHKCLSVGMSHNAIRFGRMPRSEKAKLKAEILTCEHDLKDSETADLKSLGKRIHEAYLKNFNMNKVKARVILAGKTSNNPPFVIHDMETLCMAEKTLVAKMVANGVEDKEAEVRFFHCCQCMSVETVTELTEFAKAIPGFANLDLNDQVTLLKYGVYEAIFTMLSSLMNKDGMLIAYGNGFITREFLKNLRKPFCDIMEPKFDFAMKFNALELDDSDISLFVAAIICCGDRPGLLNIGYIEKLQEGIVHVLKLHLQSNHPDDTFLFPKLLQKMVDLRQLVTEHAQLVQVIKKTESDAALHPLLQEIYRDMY

[3] = target: T2, Peroxisome proliferator-activated receptor alpha (Homo sapiens, UniProt Q07869); experiment: Agonist activity at Gal4-fused human PPARalpha co-expressed with RXRalpha in monkey CV1 cells assessed as PPRE transcriptional activation incubated for 45 hrs by luciferase reporter gene assay; format: cell-based, CV-1
T2 sequence (Q07869 whole entry): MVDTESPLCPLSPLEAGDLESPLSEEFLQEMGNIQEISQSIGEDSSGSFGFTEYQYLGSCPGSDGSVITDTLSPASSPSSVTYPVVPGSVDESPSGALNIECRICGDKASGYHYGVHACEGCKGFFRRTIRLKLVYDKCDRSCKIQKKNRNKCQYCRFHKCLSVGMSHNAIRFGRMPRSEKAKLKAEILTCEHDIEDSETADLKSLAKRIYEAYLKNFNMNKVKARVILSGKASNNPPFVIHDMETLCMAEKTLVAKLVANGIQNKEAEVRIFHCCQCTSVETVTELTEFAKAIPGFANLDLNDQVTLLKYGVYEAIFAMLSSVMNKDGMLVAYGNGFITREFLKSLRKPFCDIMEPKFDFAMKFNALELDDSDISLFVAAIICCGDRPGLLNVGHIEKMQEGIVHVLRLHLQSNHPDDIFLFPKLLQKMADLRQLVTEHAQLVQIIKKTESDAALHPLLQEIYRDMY

[4] = target: T1, Peroxisome proliferator-activated receptor alpha (Mus musculus); experiment: In vivo agonist activity at PPARalpha in high fat diet-induced nonalcoholic steatohepatitis C57BL/6J mouse model assessed as increase in ACOX1 mRNA expression in liver administered at 3 mg/kg, po and measured after 24 hrs by quantitative real time PCR analysis; format: functional, organism-based
Mus musculus [5] = experiment: Hypolipidemic activity in high fat diet-induced nonalcoholic steatohepatitis C57BL/6J mouse model assessed as reduction in plasma triglyceride level at 3 mg/kg, po administered via gavage and measured after 24 hrs; format: functional
[6] = target: T3, Peroxisome proliferator-activated receptor delta (Homo sapiens, UniProt Q03181); experiment: Agonist activity at Gal4-fused human PPARdelta expressed in monkey CV1 cells assessed as receptor transactivation incubated for 45 hrs by luciferase reporter gene assay; format: cell-based, CV-1
T3 sequence (Q03181 whole entry): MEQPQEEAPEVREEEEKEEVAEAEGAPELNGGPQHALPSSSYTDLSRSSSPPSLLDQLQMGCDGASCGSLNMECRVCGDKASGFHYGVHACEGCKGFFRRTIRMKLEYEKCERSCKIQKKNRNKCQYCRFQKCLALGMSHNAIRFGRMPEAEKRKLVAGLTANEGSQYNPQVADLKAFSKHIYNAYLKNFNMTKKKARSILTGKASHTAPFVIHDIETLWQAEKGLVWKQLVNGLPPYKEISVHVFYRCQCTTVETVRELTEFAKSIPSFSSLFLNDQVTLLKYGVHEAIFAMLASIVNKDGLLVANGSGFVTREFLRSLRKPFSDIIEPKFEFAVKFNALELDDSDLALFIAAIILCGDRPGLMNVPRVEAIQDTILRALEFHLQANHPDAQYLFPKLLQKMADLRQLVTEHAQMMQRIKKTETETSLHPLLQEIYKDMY

[7] = target: T1, Peroxisome proliferator-activated receptor alpha (Mus musculus); experiment: In vivo agonist activity at PPARalpha in high fat diet-induced nonalcoholic steatohepatitis C57BL/6J mouse model assessed as increase in LPL mRNA expression in liver administered at 3 mg/kg, po and measured after 24 hrs by quantitative real time PCR analysis; format: functional, organism-based
[8] = target: T1, Peroxisome proliferator-activated receptor alpha (Mus musculus); experiment: In vivo agonist activity at PPARalpha in high fat diet-induced nonalcoholic steatohepatitis C57BL/6J mouse model assessed as trans-repression of ApoC3 mRNA expression in liver administered at 3 mg/kg, po and measured after 24 hrs by quantitative real time PCR analysis; format: functional, organism-based
[9] = target: T4, Peroxisome proliferator-activated receptor gamma (Homo sapiens, UniProt P37231); experiment: Agonist activity at Gal4-fused human PPARgamma expressed in monkey CV1 cells assessed as receptor transactivation incubated for 45 hrs by luciferase reporter gene assay; format: cell-based, CV-1
T4 sequence (P37231 whole entry): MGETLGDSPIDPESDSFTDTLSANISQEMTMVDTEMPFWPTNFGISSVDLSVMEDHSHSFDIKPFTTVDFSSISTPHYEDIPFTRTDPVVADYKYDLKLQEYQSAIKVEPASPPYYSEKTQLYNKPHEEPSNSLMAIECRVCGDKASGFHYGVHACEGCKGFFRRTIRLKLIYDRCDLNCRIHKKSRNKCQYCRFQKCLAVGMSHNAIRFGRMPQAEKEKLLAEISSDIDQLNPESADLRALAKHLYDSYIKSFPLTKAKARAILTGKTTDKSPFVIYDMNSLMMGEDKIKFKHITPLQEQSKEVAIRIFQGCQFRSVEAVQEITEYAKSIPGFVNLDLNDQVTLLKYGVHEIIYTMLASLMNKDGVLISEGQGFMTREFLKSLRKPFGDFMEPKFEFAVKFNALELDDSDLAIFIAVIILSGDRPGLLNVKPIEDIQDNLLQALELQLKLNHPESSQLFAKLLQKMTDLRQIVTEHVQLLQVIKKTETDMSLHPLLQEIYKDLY

[10] = target: T5, Peroxisome proliferator-activated receptor alpha (Mus musculus, UniProt P23204); experiment: Agonist activity at Gal4-fused mouse PPARalpha co-expressed with RXRalpha in monkey CV1 cells assessed as PPRE transcriptional activation incubated for 45 hrs by luciferase reporter gene assay; format: cell-based, CV-1
T5 sequence (P23204 whole entry): T1 sequence (whole entry)

[11] = Toxicity in high fat diet-induced nonalcoholic steatohepatitis C57BL/6J mouse model assessed as increase in plasma glucose level at 3 mg/kg, po administered once daily for 7 days and measured after 4 days; format: organism-based; conditions: in vivo, 96 h, time 4 day
[12] = target: T1, Peroxisome proliferator-activated receptor alpha (Mus musculus); experiment: In vivo agonist activity at PPARalpha in high fat diet-induced nonalcoholic steatohepatitis C57BL/6J mouse model assessed as increase in LPL mRNA expression in liver administered at 3 mg/kg, po administered once daily for 7 days by quantitative real time PCR analysis; format: functional, organism-based; conditions: time 7.0 day
[13] = target: T1, Peroxisome proliferator-activated receptor alpha (Mus musculus); experiment: In vivo agonist activity at PPARalpha in high fat diet-induced nonalcoholic steatohepatitis C57BL/6J mouse model assessed as increase in mACADM gene expression in liver at 3 mg/kg, po administered once daily for 7 days by quantitative real time PCR analysis; format: functional, organism-based; conditions: time 7.0 day
[14] = target: T1, Peroxisome proliferator-activated receptor alpha (Mus musculus); experiment: In vivo agonist activity at PPARalpha in high fat diet-induced nonalcoholic steatohepatitis C57BL/6J mouse model assessed as increase in Cyp4a3 mRNA expression in liver administered at 3 mg/kg, po administered once daily for 7 days by quantitative real time PCR analysis; format: functional, organism-based; conditions: time 7.0 day
[15] = target: T1, Peroxisome proliferator-activated receptor alpha (Mus musculus); experiment: In vivo agonist activity at PPARalpha in high fat diet-induced nonalcoholic steatohepatitis C57BL/6J mouse model assessed as increase in mCPT1A gene expression in liver at 3 mg/kg, po administered once daily for 7 days and measured at >3 days by quantitative real time PCR analysis; format: functional, organism-based; conditions: time day >3

COc1cccc(Cn2c(CCCc3ccc(OC(C)(C)C(=O)O)cc3)nn(Cc3ccc(C)cc3)c2=O)c1
Activity (Mus musculus [1]): Active | Activity [2]: Active | EC50 [3]: 1 nM | Activity [4]: Active | inhibition in vivo at 3 mg/kg (Mus musculus [5]): ≥ 50% | EC50 [6]: > 10 µM | Activity [7]: Active | Activity [8]: Active | EC50 [9]: > 10 µM

Cc1ccc(Cn2nc(CCCc3ccc(OC(C)(C)C(=O)O)cc3)n(Cc3ccc(F)cc3)c2=O)cc1
Activity (Mus musculus [1]): Active | Activity [2]: Active | EC50 [3]: 0.95 nM | Activity [4]: Active | inhibition in vivo at 3 mg/kg (Mus musculus [5]): ≥ 50% | EC50 [6]: > 10 µM | Activity [7]: Active | Activity [8]: Active | EC50 [9]: > 10 µM

Cc1ccc(Cn2nc(CCCc3ccc(OC(C)(C)C(=O)O)cc3)n(Cc3ccc(C)cc3)c2=O)cc1
Activity (Mus musculus [1]): Active | Activity [2]: inactive | EC50 [3]: 0.85 nM | Activity [4]: inactive | inhibition in vivo at 3 mg/kg (Mus musculus [5]): ≥ 50% | EC50 [6]: > 10 µM | Activity [7]: Active | Activity [8]: inactive | EC50 [9]: > 10 µM

Cc1ccc(Cn2nc(CCCc3ccc(OC(C)(C)C(=O)O)cc3)n(Cc3ccc(Cl)cc3)c2=O)cc1
Activity (Mus musculus [1]): Active | Activity [2]: Active | EC50 [3]: 1 nM | Activity [4]: Active | inhibition in vivo at 3 mg/kg (Mus musculus [5]): ≥ 50% | EC50 [6]: > 10 µM | Activity [7]: Active | EC50 [10]: 10 nM | Activity [8]: Active | EC50 [9]: > 10 µM

Cc1ccc(Cn2nc(CCCc3ccc(OC(C)(C)C(=O)O)cc3)n(Cc3ccccc3)c2=O)cc1
Activity (Mus musculus [1]): Active | Activity [2]: Active | Activity [4]: Active | inhibition in vivo at 3 mg/kg (Mus musculus [5]): ≥ 50% | EC50 [6]: > 10 µM | Activity [7]: Active | Activity [8]: Active | EC50 [9]: > 10 µM

COc1cc(Cn2c(CCCc3ccc(OC(C)(C)C(=O)O)cc3)nn(Cc3ccc(C)cc3)c2=O)cc(OC)c1OC
Activity (Mus musculus [1]): Active | Activity [2]: Active | Activity [4]: Active | inhibition in vivo at 3 mg/kg (Mus musculus [5]): ≥ 50% | EC50 [6]: > 10 µM | Activity [7]: Active | Activity [8]: Active | EC50 [9]: > 10 µM

CC(C)(Sc1ccc(CCN(CCCCC2CCCCC2)C(=O)NC2CCCCC2)cc1)C(=O)O [GW7647]
Activity [2]: inactive | Activity [11]: Toxic | Activity [12]: inactive | Activity [4]: inactive | inhibition in vivo at 3 mg/kg (Mus musculus [5]): ≥ 50% | Activity [13]: Active | Activity [14]: Active | Activity [15]: Active

C=Cc1ccc(Cn2nc(CCCc3ccc(OC(C)(C)C(=O)O)cc3)n(Cc3ccc(C)cc3)c2=O)cc1
Activity (Mus musculus [1]): Active | Activity [2]: Active | EC50 [3]: 12 nM | Activity [4]: Active | inhibition in vivo at 3 mg/kg (Mus musculus [5]): ≥ 50% | EC50 [6]: > 10 µM | Activity [7]: Active | EC50 [10]: 20 nM | Activity [8]: Active | EC50 [9]: > 10 µM

COc1ccc(Cn2c(CCCc3ccc(OC(C)(C)C(=O)O)cc3)nn(Cc3ccc(C(C)(C)C)cc3)c2=O)cc1
Activity (Mus musculus [1]): Active | Activity [2]: Active | Activity [4]: Active | inhibition in vivo at 3 mg/kg (Mus musculus [5]): ≥ 50% | Activity [8]: Active
